Measured values as given in patent US20250122397A1, “FOOD SAFE AQUEOUS INKJET COMPOSITIONS” (Canon Production Printing Holding B.V., priority 2023, published 2025).

Assay: Viscosity, Haake Rheostress RS 600 rheometer, flat plate geometry
Format: physicochemical
Conditions: for Viscosity: 1.5 mol/kg aqueous Mg-salt solution, 25° C.
Protocol: The viscosity is measured using a Haake Rheometer, type Haake Rheostress RS 600, with a flat plate geometry at a temperature of 25° C. unless otherwise indicated. The viscosity is measured at shear rates (i) of between in the range of between 10 s^−1 and 1000 s^−1, unless otherwise indicated.

SMILES	Viscosity [mPas]	viscosity relative to the jettable range (jettable range typically between 2 and 8 mPas, 1.5 mol/kg solution)
O=S(=O)([O-])[O-].[Mg+2] [compound 1, Mg-sulfate, reference compound]	3.2	
CC(=O)CCC(=O)[O-].CC(=O)CCC(=O)[O-].[Mg+2] [compound 14, Mg-levulinate]	10.3	outside the jettable range
C=C(CC(=O)[O-])C(=O)[O-].[Mg+2] [compound 8, Mg-itaconate]	5.5	
O=C([O-])CCC(=O)[O-].[Mg+2] [compound 10, Mg-succinate]	5.0	
O=C([O-])CCCCC(=O)[O-].[Mg+2] [compound 15, Mg-adipate]	8.8	
O=[N+]([O-])[O-].O=[N+]([O-])[O-].[Mg+2] [compound 2, Mg-nitrate, reference compound]	4.6	
